Data published in paper PMC8196580, “Identification of Kaurane-Type Diterpenes as Inhibitors of Leishmania Pteridine Reductase I” (Molecules, 2021).
Where two headings read alike, the source gives them in different places.

Legend:
L. major [1] = experiment: ChEMBL dataset of pIC50 values against L. major used for the RF model (Table S1); assay type: cell-based, Leishmania major; further: call rule not given here
L. major [2] = system: L. major; set-up: method as in ChEMBL; details: ref ChEMBL, cited from earlier work
[3] = Active/Inactive class assigned to ChemBL structures for Random forest model construction (Table S1)
[4] = ChemBL structures with pIC50 values used for Random forest model construction (Table S1)
[5] = Active/Inactive class assigned to the ChEMBL pIC50 value for Random forest model construction, ref ChEMBL
[6] = ChemBL structures with pIC50 values used for Random forest model construction, L. major

| Structure (SMILES) | Outcome (L. major [1]; [3]) | pIC50 Value (L. major [2]; [4]) | Outcome (L. major [1]; [5]) | pIC50 Value (L. major [2]; [6]) |
| --- | --- | --- | --- | --- |
| CCOc1ccc(/N=C/c2cn(C)c3ccccc23)cc1 [CHEMBL2071554] | Active | 5.50 |  |  |
| Cn1cc(/C=N/c2ccc(Cl)cc2)c2ccccc21 [CHEMBL2071555] | Active | 5.67 |  |  |
| Cn1cc(/C=N/C(c2ccccc2)c2ccccc2)c2ccccc21 [CHEMBL2071556] | Active | 5.73 |  |  |
| COc1ccc(/N=C/c2cn(C)c3ccccc23)cc1 [CHEMBL2071557] | Active | 5.46 |  |  |
| Cc1ccccc1/N=C/c1cn(C)c2ccccc12 [CHEMBL2071558] | Active | 5.64 |  |  |
| Cn1cc(/C=N/Cc2ccccc2)c2ccccc21 [CHEMBL2071559] | Active | 5.54 |  |  |
| Cn1cc(C2N(c3ccccc3)C(=O)C2(c2ccccc2)c2ccccc2)c2ccccc21 (stereo not shown) [CHEMBL2071560] | Active | 5.85 |  |  |
| Cc1ccc(N2C(=O)C(c3ccccc3)(c3ccccc3)C2c2cn(C)c3ccccc23)cc1 (stereo not shown) [CHEMBL2071561] | Active | 5.88 |  |  |
| CCOc1ccc(N2C(=O)C(c3ccccc3)(c3ccccc3)C2c2cn(C)c3ccccc23)cc1 (stereo not shown) [CHEMBL2071562] | Active | 5.93 |  |  |
| Cn1cc(C2N(c3ccc(Cl)cc3)C(=O)C2(c2ccccc2)c2ccccc2)c2ccccc21 (stereo not shown) [CHEMBL2071563] | Active | 5.78 |  |  |
| Cc1ccc(C2(c3ccc(C)cc3)C(=O)N(c3ccccc3)C2c2cn(C)c3ccccc23)cc1 (stereo not shown) [CHEMBL2071564] | Active | 5.91 |  |  |
| Cc1ccc(N2C(=O)C(c3ccc(C)cc3)(c3ccc(C)cc3)C2c2cn(C)c3ccccc23)cc1 (stereo not shown) [CHEMBL2071565] | Active | 5.89 |  |  |
| CCOc1ccc(N2C(=O)C(c3ccc(C)cc3)(c3ccc(C)cc3)C2c2cn(C)c3ccccc23)cc1 (stereo not shown) [CHEMBL2071566] | Active | 5.90 |  |  |
| Cc1ccc(C2(c3ccc(C)cc3)C(=O)N(c3ccc(Cl)cc3)C2c2cn(C)c3ccccc23)cc1 (stereo not shown) [CHEMBL2071567] | Active | 5.94 |  |  |
| Cc1ccc(-c2c(-c3ccccc3)nc3ccccn23)cc1 [CHEMBL2151857] | Active | 5.40 |  |  |
| COc1ccc(-c2c(-c3ccccc3)nc3ccccn23)cc1 [CHEMBL2151858] |  |  | Active | 5.14 |
| Oc1ccc(-c2c(-c3ccccc3)nc3ccccn23)cc1 [CHEMBL2151859] |  |  | Inactive | 4.40 |
| CC(=O)Oc1ccc(-c2c(-c3ccccc3)nc3ccccn23)cc1 [CHEMBL2151860] |  |  | Inactive | 4.80 |
| CC(C)(C)C(=O)Oc1ccc(-c2c(-c3ccccc3)nc3ccccn23)cc1 [CHEMBL2151861] |  |  | Active | 5.15 |
| O=[N+]([O-])c1ccc(-c2c(-c3ccccc3)nc3ccccn23)cc1 [CHEMBL2151862] | Active | 5.31 |  |  |
| Nc1ccc(-c2c(-c3ccccc3)nc3ccccn23)cc1 [CHEMBL2151863] |  |  | Inactive | 4.37 |
| N#Cc1ccc(-c2c(-c3ccccc3)nc3ccccn23)cc1 [CHEMBL2151864] |  |  | Inactive | 4.00 |

| Structure (SMILES) | Outcome (L. major [1]; [3]) | pIC50 Value (L. major [2]; [4]) | Outcome (L. major [1]; [5]) | pIC50 Value (L. major [2]; [6]) |
| --- | --- | --- | --- | --- |
| NC(=O)c1ccc(-c2c(-c3ccccc3)nc3ccccn23)cc1 [CHEMBL2151865] |  |  | Inactive | 4.57 |
| CCOC(=O)c1ccc(-c2c(-c3ccccc3)nc3ccccn23)cc1 [CHEMBL2151866] |  |  | Active | 5.28 |
| O=C(O)c1ccc(-c2c(-c3ccccc3)nc3ccccn23)cc1 [CHEMBL2151867] |  |  | Inactive | 4.00 |
| Clc1cc(Cl)cc(-c2c(-c3ccccc3)nc3ccccn23)c1 [CHEMBL2151868] |  |  | Active | 5.11 |
| c1ccc(-c2nc3ccccn3c2-c2cccnc2)cc1 [CHEMBL2151869] |  |  | Inactive | 4.65 |
| c1ccc(-c2nc3ccccn3c2-c2ccncc2)cc1 [CHEMBL2151870] |  |  | Active | 5.19 |
| c1ccc(-c2nc3ccccn3c2-c2cncnc2)cc1 [CHEMBL2151871] |  |  | Inactive | 4.00 |
| c1ccc(-c2nc3ccccn3c2-c2ccsc2)cc1 [CHEMBL2151872] |  |  | Inactive | 4.84 |
| Fc1ccc(-c2nc3ccccn3c2-c2ccccc2)cc1 [CHEMBL2151873] |  |  | Inactive | 4.64 |
| O=[N+]([O-])c1cccc(-c2c(-c3ccc(F)cc3)nc3ccccn23)c1 [CHEMBL2151874] |  |  | Inactive | 4.00 |
| Fc1ccc(-c2nc3ccccn3c2-c2cccnc2)cc1 [CHEMBL2151875] |  |  | Inactive | 4.42 |
| Fc1ccccc1-c1nc2ccccn2c1-c1ccccc1 [CHEMBL2151876] |  |  | Inactive | 4.41 |
| Fc1ccccc1-c1nc2ccccn2c1-c1cccnc1 [CHEMBL2151877] |  |  | Inactive | 4.46 |
| Clc1cccc(-c2nc3ccccn3c2-c2ccccc2)c1 [CHEMBL2151878] | Active | 5.36 |  |  |
| CCOC(=O)c1ccc(-c2nc3ccccn3c2-c2ccccc2)cc1 [CHEMBL2151879] |  |  | Inactive | 4.40 |
| O=[N+]([O-])c1ccc(-c2nc3ccccn3c2-c2ccccc2)cc1 [CHEMBL2151880] |  |  | Inactive | 4.52 |
| COc1ccc(-c2nc3ccccn3c2-c2ccccc2)cc1 [CHEMBL2151881] |  |  | Inactive | 4.58 |
| COc1ccc(-c2nc3ccccn3c2-c2cccc([N+](=O)[O-])c2)cc1 [CHEMBL2151882] |  |  | Inactive | 4.85 |
| COc1ccccc1-c1nc2ccccn2c1-c1ccccc1 [CHEMBL2151883] |  |  | Inactive | 4.74 |
| Clc1cc(Cl)cc(-c2nc3ccccn3c2-c2ccccc2)c1 [CHEMBL2151989] |  |  | Inactive | 4.41 |
| Clc1cc(Cl)cc(-c2nc3ccccn3c2-c2cccnc2)c1 [CHEMBL2151990] |  |  | Inactive | 4.50 |
| C[C@@H](OP(N)(=O)N(CCCl)CCCl)c1ccc([N+](=O)[O-])cc1 (stereo partly shown) [CHEMBL2158071] |  |  | Inactive | 4.52 |

| Structure (SMILES) | Outcome (L. major [1]; [3]) | pIC50 Value (L. major [2]; [4]) | Outcome (L. major [1]; [5]) | pIC50 Value (L. major [2]; [6]) |
| --- | --- | --- | --- | --- |
| C[C@H](OP(N)(=O)N(CCCl)CCCl)c1ccc([N+](=O)[O-])cc1 (stereo partly shown) [CHEMBL2158072] |  |  | Inactive | 4.52 |
| NP(=O)(OCc1ccc([N+](=O)[O-])cn1)N(CCCl)CCCl (stereo not shown) [CHEMBL2158073] |  |  | Active | 5.08 |
| C[n+]1ccc(-c2c3nc(c(-c4cc[n+](C)cc4)c4ccc([nH]4)c(-c4cc[n+](C)cc4)c4nc(c(-c5cc[n+](C)cc5)c5ccc2[nH]5)C=C4)C=C3)cc1.Cc1ccc(S(=O)(=O)[O-])cc1.Cc1ccc(S(=O)(=O)[O-])cc1.Cc1ccc(S(=O)(=O)[O-])cc1.Cc1ccc(S(=O)(=O)[O-])cc1 [CHEMBL2170855] |  |  | Inactive | 4.68 |
| COc1ccc(-n2nnc3c(N4CCCC(O)C4)nc(CC4CCCCC4)nc32)cc1 (stereo not shown) [CHEMBL2171512] |  |  | Active | 5.07 |
| CC(=O)N1c2ccccc2Oc2ccccc21 [CHEMBL2180182] |  |  | Inactive | 4.00 |
| Cc1ccc2cc(C3CC(c4ccc(Br)s4)=NN3)c(Cl)nc2c1 (stereo not shown) [CHEMBL2235715] | Active | 5.64 |  |  |
| Cc1ccc2cc(C3CC(c4ccc(I)s4)=NN3)c(Cl)nc2c1 (stereo not shown) [CHEMBL2235716] | Active | 5.71 |  |  |
| Cc1cccc2cc(C3CC(c4ccsc4)=NN3)c(Cl)nc12 (stereo not shown) [CHEMBL2235717] | Active | 5.69 |  |  |
| Cc1ccsc1C1=NNC(c2cc3cccc(C)c3nc2Cl)C1 (stereo not shown) [CHEMBL2235718] | Active | 5.64 |  |  |
| Cc1csc(C2=NNC(c3cc4cccc(C)c4nc3Cl)C2)c1 (stereo not shown) [CHEMBL2235719] | Active | 5.66 |  |  |
| Cc1ccc(C2=NNC(c3cc4cccc(C)c4nc3Cl)C2)s1 (stereo not shown) [CHEMBL2235720] | Active | 5.58 |  |  |
| Cc1cc(C2=NNC(c3cc4cccc(C)c4nc3Cl)C2)c(C)s1 (stereo not shown) [CHEMBL2235721] | Active | 5.58 |  |  |
| Cc1cccc2cc(C3CC(c4sccc4Cl)=NN3)c(Cl)nc12 (stereo not shown) [CHEMBL2236129] | Active | 5.63 |  |  |
| Cc1cccc2cc(C3CC(c4ccc(Cl)s4)=NN3)c(Cl)nc12 (stereo not shown) [CHEMBL2236130] | Active | 5.68 |  |  |
| Cc1cccc2cc(C3CC(c4cc(Cl)sc4Cl)=NN3)c(Cl)nc12 (stereo not shown) [CHEMBL2236131] | Active | 5.70 |  |  |
| Cc1cccc2cc(C3CC(c4sccc4Br)=NN3)c(Cl)nc12 (stereo not shown) [CHEMBL2236132] | Active | 5.64 |  |  |
| Cc1cccc2cc(C3CC(c4ccc(Br)s4)=NN3)c(Cl)nc12 (stereo not shown) [CHEMBL2236133] | Active | 5.64 |  |  |
| Cc1cccc2cc(C3CC(c4ccc(I)s4)=NN3)c(Cl)nc12 (stereo not shown) [CHEMBL2236134] | Active | 5.77 |  |  |
| Cc1ccc2cc(C3CC(c4ccsc4)=NN3)c(Cl)nc2c1 (stereo not shown) [CHEMBL2236135] | Active | 5.54 |  |  |
| Cc1ccc2cc(C3CC(c4sccc4C)=NN3)c(Cl)nc2c1 (stereo not shown) [CHEMBL2236136] | Active | 5.65 |  |  |
| Cc1csc(C2=NNC(c3cc4ccc(C)cc4nc3Cl)C2)c1 (stereo not shown) [CHEMBL2236137] | Active | 5.59 |  |  |
